Laboratory results published in patent US12583825B2, “Benzo[h]quinazolin-4-amine and thieno[3,2-h]quinazolin-4-amine derivatives for the treatment of cancer” (Redona Therapeutics, Inc., priority 2020, dated 2026).

What was measured:
recombinant human CLK3 = target: T1, recombinant human CLK3 (Homo sapiens, UniProt P49761); test: CLK3 kinase assay (LANCE Ultra); assay type: biochemical; conditions: 0.5 nM CLK3, 300 μM ATP, 3 hours at 30° C.
T1 construct: purchased Thermo Fisher Scientific PV3826
Procedure: CLK3 kinase activity was measured using the LANCE® Ultra technology (PerkinElmer) essentially as recommended by the supplier. Briefly, 2.5 μL of test sample at 4× the desired final concentration in 4% DMSO were dispensed into white, low volume, round bottom, 384 well plates (Corning, cat. no. 4512). 5 μL of a mixture containing recombinant human CLK3 (Thermo Fisher Scientific, cat. no. PV3826) and the labeled peptide substrate ULight™-CREBtide (PerkinElmer, cat. no. TRF0107) prepared in 1.33× kinase buffer (Thermo Fisher Scientific, cat. no. PV3189) were then added. Finally, the reactions were started by adding 2.5 μL of a 4× solution of ATP in kinase buffer. The plates were sealed with adhesive foils and incubated for 3 hours at 30° C. in the dark. The final concentrations of CLK3, ULight™—CREBtide, and ATP were 0.5 nM, 50 nM, and 300 μM, respectively. 5 μL of 40 mM EDTA were then added to terminate the reactions. The Eu-anti-phospho-CREB antibody (PerkinElmer, cat. no. TRF0200) diluted in LANCE® detection buffer (PerkinElmer, cat. no. CR97) was then added to a final concentration of 2 nM and the reactions were incubated for 1 hour at room temperature in the dark. The signals were measured using a Synergy 4 reader (BioTek) with a 320/80 nm filter for the excitation and 620/10 nm and 665/8 nm filters for the donor and acceptor emission, respectively. […] IC50 values were calculated by fitting the concentration-response data to a sigmoidal 4-parameter logistic model.

MDA-MB-231 cells = test: MDA-MB-231 proliferation assay; assay type: cell-based; conditions: Homo sapiens, 72 hours, YO-PRO-1 readout
Procedure: MDA-MB-231 Proliferation Assay
MDA-MB-231 cells were cultivated in DMEM High Glucose (4.5 g/L) with L-Glutamine (BioConcept, cat. no. 1-26F03-I) supplemented with 1% Na-pyruvate (Sigma, cat. no. S8636), 1% Penicillin-Streptomycin (BioConcept, cat. no. 4-01F00H), and 10% FBS (Sigma, cat. no. F9665) using standard techniques. Cells were seeded in black, clear-bottom 384 well plates for tissue culture (Greiner Bio-One, cat. no. 781091) at a density of 750 cells per well in 20 μL medium and the plates were incubated overnight at 37° C. with 5% CO2 prior to treatment. Experimental compounds were serially diluted in DMSO to 200× the desired final concentrations. The solutions were then diluted 1:40 with culture medium and 5 μL aliquots were mixed into the wells containing the cells. The final concentration of DMSO was 0.5%. The plates were incubated for 72 hours and cell numbers were then measured using YO-PRO™-1 Iodide (ThermoFisher Scientific, cat. no. Y3603) essentially as recommended by the manufacturer. […] The plates were incubated at room temperature in the dark for 30 minutes. Fluorescence intensity signals were then measured on a Synergy 4 reader (BioTek) using 485/20 nm and 530/25 nm filters for the excitation and emission, respectively. Relative proliferation values were calculated by normalizing the raw data using DMSO-treated cells (100% proliferation) and the signals obtained from cells that were evaluated at the time of compound addition (0% proliferation). The concentration-response data were fitted to a sigmoidal 4-parameter logistic model with the maximum constrained to 100%.

T1 sequence (P49761 whole entry): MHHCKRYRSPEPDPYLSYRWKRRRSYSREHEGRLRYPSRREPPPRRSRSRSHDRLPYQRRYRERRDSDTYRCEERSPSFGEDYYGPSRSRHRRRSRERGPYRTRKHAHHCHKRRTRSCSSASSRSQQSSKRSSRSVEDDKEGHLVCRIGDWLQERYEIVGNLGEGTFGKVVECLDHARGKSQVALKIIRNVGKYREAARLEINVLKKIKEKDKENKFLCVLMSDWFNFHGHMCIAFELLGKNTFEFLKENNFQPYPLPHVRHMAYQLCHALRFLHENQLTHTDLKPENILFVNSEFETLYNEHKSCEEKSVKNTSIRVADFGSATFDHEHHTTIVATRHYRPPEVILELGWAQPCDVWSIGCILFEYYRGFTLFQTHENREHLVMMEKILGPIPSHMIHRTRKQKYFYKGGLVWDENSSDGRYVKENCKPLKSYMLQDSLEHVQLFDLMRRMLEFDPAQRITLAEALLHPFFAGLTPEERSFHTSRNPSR

Structure (SMILES)	IC50 (recombinant human CLK3) [nM]	GI50 (MDA-MB-231 cells) [nM]
CC1(C)/C(=N/O)c2cc(O[C@H]3CC[C@H](N)CC3)ccc2-c2ncnc(N)c21 [Example 2, (6Z)-4-amino-8-(trans-4-aminocyclohexoxy)-5,5-dimethyl-benzo[h]quinazolin-6-one oxime]	16.6	742
CC1(C)/C(=N/OCc2ccccc2)c2cc(O[C@H]3CC[C@H](N)CC3)ccc2-c2ncnc(N)c21 [Example 3, (6Z)-8-(trans-4-aminocyclohexoxy)-6-benzyloxyimino-5,5-dimethyl-benzo[h]quinazolin-4-amine]	200	1960
COc1ccc2c(c1)/C(=N\OCC(=O)O)C(C)(C)c1c(N)ncnc1-2 [Example 5, 2-[(Z)-(4-amino-8-methoxy-5,5-dimethyl-benzo[h]quinazolin-6-ylidene)amino]oxyacetic acid]	227	–
COc1ccc2c(c1)/C(=N\OCC(N)=O)C(C)(C)c1c(N)ncnc1-2 [Example 7, 2-[(Z)-(4-amino-8-methoxy-5,5-dimethyl-benzo[h]quinazolin-6-ylidene)amino]oxyacetamide]	115	–
COc1ccc2c(c1)/C(=N\OCC(=O)NCCN)C(C)(C)c1c(N)ncnc1-2 [Example 8, N-(2-aminoethyl)-2-[(Z)-(4-amino-8-methoxy-5,5-dimethyl-benzo[h]quinazolin-6-ylidene)amino]oxy-acetamide]	73.2	> 2000
COc1ccc2c(c1)/C(=N\O[C@H]1CC[C@@H](N)CC1)C(C)(C)c1c(N)ncnc1-2 [Example 9, (6Z)-6-(cis-4-aminocyclohexoxy)imino-8-methoxy-5,5-dimethyl-benzo[h]quinazolin-4-amine]	90.2	1050
COc1ccc2c(c1)/C(=N\O[C@H]1CC[C@H](N)CC1)C(C)(C)c1c(N)ncnc1-2 [Example 10, (6Z)-6-(trans-4-aminocyclohexoxy)imino-8-methoxy-5,5-dimethyl-benzo[h]quinazolin-4-amine]	75.8	> 2000
COc1ccc2c(c1)/C(=N\OC[C@H]1CC[C@H](N)CC1)C(C)(C)c1c(N)ncnc1-2 [Example 11, (6Z)-6-[(trans-4-aminocyclohexyl)methoxyimino]-8-methoxy-5,5-dimethyl-benzo[h]quinazolin-4-amine]	437	–
COc1ccc2c(c1)/C(=N\OC[C@H]1CNC(=O)O1)C(C)(C)c1c(N)ncnc1-2 [Example 12, (5R)-5-[[(Z)-(4-amino-8-methoxy-5,5-dimethyl-benzo[h]quinazolin-6-ylidene)amino]oxymethyl]oxazolidin-2-one]	129	> 2000
COC(=O)CCO/N=C1\c2cc(O[C@H]3CC[C@H](N)CC3)ccc2-c2ncnc(N)c2C1(C)C [Example 14, methyl 3-[(Z)-[4-amino-8-(trans-4-aminocyclohexoxy)-5,5-dimethyl-benzo[h]quinazolin-6-ylidene]amino]oxypropanoate]	23.9	597
CC1(C)/C(=N/OCCCO)c2cc(O[C@H]3CC[C@H](N)CC3)ccc2-c2ncnc(N)c21 [Example 15, 3-[(Z)-[4-amino-8-(trans-4-aminocyclohexoxy)-5,5-dimethyl-benzo[h]quinazolin-6-ylidene]amino]oxypropan-1-ol]	29.8	714
CCN(CC)CCCO/N=C1\c2cc(O[C@H]3CC[C@H](N)CC3)ccc2-c2ncnc(N)c2C1(C)C [Example 17, (6Z)-8-(trans-4-aminocyclohexoxy)-6-[3-(diethylamino)propoxyimino]-5,5-dimethyl-benzo[h]quinazolin-4-amine]	410	–
CCO/N=C1\c2cc(O[C@H]3CC[C@H](N)CC3)ccc2-c2ncnc(N)c2C1(C)C [Example 24, (6Z)-8-(trans-4-aminocyclohexoxy)-6-ethoxyimino-5,5-dimethyl-benzo[h]quinazolin-4-amine]	–	743
CO/N=C1\c2cc(O[C@H]3CC[C@H](N)CC3)cc(Cl)c2-c2ncnc(N)c2C1(C)C [Example 39, (6Z)-8-(trans-4-aminocyclohexoxy)-10-chloro-6-methoxyimino-5,5-dimethyl-benzo[h]quinazolin-4-amine]	–	> 2000
CO/N=C1\c2cc(OC)c(N)cc2-c2ncnc(N)c2C1(C)C [Example 42, (6Z)-8-methoxy-6-methoxyimino-5,5-dimethyl-benzo[h]quinazoline-4,9-diamine]	–	> 2000
CO/N=C1\c2cc(O[C@H]3CC[C@@H](N)CC3)ccc2-c2ncnc(N)c2C1(C)C [Example 54, (6Z)-8-(cis-4-aminocyclohexoxy)-6-methoxyimino-5,5-dimethyl-benzo[h]quinazolin-4-amine]	1.9	–
COc1ccc2c(c1)/C(=N\OC[C@@H]1CCNC1)C(C)(C)c1c(N)ncnc1-2 [Example 62, (6Z)-8-methoxy-5,5-dimethyl-6-[[(3R)-pyrrolidin-3-yl]methoxyimino]benzo[h]quinazolin-4-amine]	372	–
COc1ccc2c(c1)/C(=N/OC[C@@H]1CCNC1)C(C)(C)c1c(N)ncnc1-2 [Example 63, (6E)-8-methoxy-5,5-dimethyl-6-[[(3R)-pyrrolidin-3-yl]methoxyimino]benzo[h]quinazolin-4-amine]	313	–
C=CCO/N=C1\c2cc(O[C@H]3CC[C@H](N)CC3)ccc2-c2ncnc(N)c2C1(C)C [Example 64, (6Z)-6-allyloxyimino-8-(trans-4-aminocyclohexoxy)-5,5-dimethyl-benzo[h]quinazolin-4-amine]	–	> 2000
CC(C)O/N=C1\c2cc(O[C@H]3CC[C@H](N)CC3)ccc2-c2ncnc(N)c2C1(C)C [Example 67, (6Z)-8-(trans-4-aminocyclohexoxy)-6-isopropoxyimino-5,5-dimethyl-benzo[h]quinazolin-4-amine]	–	> 2000
CO/N=C1\c2cc(N(C)C3CCNCC3)ccc2-c2ncnc(N)c2C1(C)C [Example 69, (6Z)-6-methoxyimino-N8,5,5-trimethyl-N8-(4-piperidyl)benzo[h]quinazoline-4,8-diamine]	–	> 2000
COc1ccc2c(c1)/C(=N\OC[C@H]1CCN(C)C1)C(C)(C)c1c(N)ncnc1-2 [Example 71, (6Z)-8-methoxy-5,5-dimethyl-6-[[(3S)-1-methylpyrrolidin-3-yl]methoxyimino]benzo[h]quinazolin-4-amine]	173	–
CO/N=C1\c2cc(Br)ccc2-c2ncnc(N)c2C1(C)C [Example 89, (6Z)-8-bromo-6-methoxyimino-5,5-dimethyl-benzo[h]quinazolin-4-amine]	98.6	–
CC1(C)/C(=N/OCCOC(F)(F)F)c2cc(O[C@H]3CC[C@@H](N)CC3)ccc2-c2ncnc(N)c21 [Example 105, (6Z)-8-(cis-4-aminocyclohexoxy)-5,5-dimethyl-6-[2-(trifluoromethoxy)ethoxyimino]benzo[h]quinazoline-4-amine]	–	82
CC1(C)/C(=N/OCCOc2ccccc2)c2cc(O[C@H]3CC[C@@H](N)CC3)ccc2-c2ncnc(N)c21 [Example 107, (6Z)-8-(cis-4-aminocyclohexoxy)-5,5-dimethyl-6-(2-phenoxyethoxyimino)benzo[h]quinazoline-4-amine]	–	319
CC1(C)/C(=N/OCCCc2cccnc2)c2cc(O[C@H]3CC[C@@H](N)CC3)ccc2-c2ncnc(N)c21 [Example 108, (6Z)-8-(cis-4-aminocyclohexoxy)-5,5-dimethyl-6-[3-(3-pyridyl)propoxyimino]benzo[h]quinazoline-4-amine]	–	942
